From US7659394B2 (Pfizer Inc, priority 2004, dated 2010)

Assays:
[1] = target: T1, human norepinephrine transporter (Homo sapiens, UniProt P23975); assay: hNET receptor binding ([125I]-RTI-55 radioligand binding); conditions: membranes of HEK-293 cells transfected with human norepinephrine transporter, IC50 converted to Ki by Cheng-Prusoff, read-out: hNET (Ki)
T1 construct: host or cells: HEK-293
Source text: (§1) The ability of the compounds of this invention to bind to the hNET and serotonin SERT receptor can be determined using conventional radiolig and receptor binding assays. The receptors can be heterologously expressed in cell lines and experiments conducted in membrane preparations from the cell lines using procedures outlined below. IC50 concentrations can be determined by nonlinear regression of concentration-dependent reduction in specific binding. The Cheng-Prussoff equation can be used to convert the IC50 to Ki concentrations.
Cell pastes of HEK-293 cells transfected with the human norepinephrine transporter were supplied by the Pfizer Ann Arbor Protein Expression and Production group. […] Aliquots of membranes (5 mg/ml protein) were stored in liquid nitrogen until used.
(§2) The reaction was incubated by gentle agitation for 90 min at room temperature and was terminated by filtration through Whatman GF/C filter plates using a Brandel 96-well plate harvester. […] Test compounds were run in duplicate, and specific binding was defined as the difference between binding in the presence and absence of 10 μM desipramine.
(§3) Excel and GraphPad Prism software were used for data calculation and analysis. IC50 values were converted to Ki values using the Cheng-Prusoff equation.

[2] = target: T2, human seritonin transporter (Homo sapiens, UniProt P31645); assay: hSERT receptor binding ([125I]-RTI-55 radioligand binding); conditions: membranes of HEK-293 cells transfected with human seritonin transporter, IC50 converted to Ki by Cheng-Prusoff, read-out: SERT (Ki)
T2 construct: host or cells: HEK-293
Source text: as §1
Cell pastes of HEK-293 cells transfected with the human seritonin transporter were supplied by the Pfizer Ann Arbor Protein Expression and Production group. […] Aliquots of membranes (5 mg/ml protein) were stored in liquid nitrogen until used.
as §2, with “[…] citalopram.” for “μM desipramine.”
as §3

T1 sequence (P23975 whole entry): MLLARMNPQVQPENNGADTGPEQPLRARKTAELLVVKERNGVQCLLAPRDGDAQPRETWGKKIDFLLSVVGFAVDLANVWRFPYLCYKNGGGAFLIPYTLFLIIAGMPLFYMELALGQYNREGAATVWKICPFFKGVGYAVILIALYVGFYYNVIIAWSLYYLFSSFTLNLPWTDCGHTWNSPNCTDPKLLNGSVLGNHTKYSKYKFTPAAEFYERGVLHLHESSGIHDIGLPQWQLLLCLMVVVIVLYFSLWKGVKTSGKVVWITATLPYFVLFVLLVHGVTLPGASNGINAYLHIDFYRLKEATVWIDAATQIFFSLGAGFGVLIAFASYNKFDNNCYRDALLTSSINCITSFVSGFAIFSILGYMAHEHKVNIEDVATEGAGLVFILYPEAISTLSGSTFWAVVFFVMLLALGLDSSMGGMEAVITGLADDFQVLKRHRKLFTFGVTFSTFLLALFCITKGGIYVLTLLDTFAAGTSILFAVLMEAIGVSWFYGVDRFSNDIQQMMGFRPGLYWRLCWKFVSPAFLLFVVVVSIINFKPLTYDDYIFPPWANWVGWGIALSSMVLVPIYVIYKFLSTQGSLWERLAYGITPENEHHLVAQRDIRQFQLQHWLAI
T2 sequence (P31645 whole entry): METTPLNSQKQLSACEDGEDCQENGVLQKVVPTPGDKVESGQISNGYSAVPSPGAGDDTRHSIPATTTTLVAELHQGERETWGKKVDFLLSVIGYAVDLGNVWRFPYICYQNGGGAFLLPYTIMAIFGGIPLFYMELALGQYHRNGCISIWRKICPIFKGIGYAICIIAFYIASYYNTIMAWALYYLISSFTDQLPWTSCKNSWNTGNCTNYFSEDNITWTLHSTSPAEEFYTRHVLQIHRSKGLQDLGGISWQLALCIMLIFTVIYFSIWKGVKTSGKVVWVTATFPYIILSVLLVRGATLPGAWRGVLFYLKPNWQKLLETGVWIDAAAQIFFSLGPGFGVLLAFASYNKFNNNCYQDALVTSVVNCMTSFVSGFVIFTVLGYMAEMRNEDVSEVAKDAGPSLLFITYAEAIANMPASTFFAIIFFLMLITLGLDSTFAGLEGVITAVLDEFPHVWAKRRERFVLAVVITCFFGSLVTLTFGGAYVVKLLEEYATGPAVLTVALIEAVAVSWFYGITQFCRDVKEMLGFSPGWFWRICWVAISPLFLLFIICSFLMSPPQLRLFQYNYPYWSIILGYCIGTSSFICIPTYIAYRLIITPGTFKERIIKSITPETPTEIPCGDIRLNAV

SMILES	Ki [1] [nM]	Ki [2] [nM]
C=Cc1ccccc1O[C@@H](c1ccccc1)[C@@H]1CNCCO1 [Example 5, (S)-2-[(S)-Phenyl-(2-vinyl-phenoxy)-methyl]-morpholine]	13	1180
Fc1ccccc1O[C@@H](c1ccccc1)[C@H]1CNCCO1 [Example 18, (R)-2-[(S)-(2-Fluoro-phenoxy)-phenyl-methyl]-morpholine]	133	72
c1ccc([C@H](Oc2cccnc2)[C@@H]2CNCCO2)cc1 [Example 40, (S)-2-[(S)-Phenyl-(pyridin-3-yloxy)-methyl]-morpholine]	317	828
Fc1cccc(Cl)c1O[C@@H](c1ccccc1)[C@@H]1CNCCO1 [Example 60]	14	78
COc1cccc(F)c1OC(c1cccnc1)[C@H]1CNCCO1 (mixture of isomers) [Example 31, (2R,3R) and (R)-2-[(S)-(2-Fluoro-6-methoxy-phenoxy)-pyridin-3-yl-methyl]-morpholine]	85	348
CCCc1ccccc1O[C@@H](c1ccccc1)[C@@H]1CNCCO1 [Example 97, (2S)-2-[(S)-phenyl(2-propylphenoxy)methyl]morpholine]	9	471
Cc1ccccc1-c1ccccc1OCC1CNCCO1 (racemic) [Example 88, 2-(2′-Methyl-biphenyl-2-yloxymethyl)-morpholine]	633	≥ 10000
c1ccc([C@H](Oc2cccc3ccccc23)[C@@H]2CNCCO2)cc1 [Example 12, (S)-2-[(S)-(Naphthalen-1-yloxy)-phenyl-methyl]-morpholine]	6.7	6.4
Fc1ccc(OC(C2CC2)[C@@H]2CNCCO2)c(F)c1 (mixture of isomers) [Example 99, (2S)-2-[cyclopropyl(2,4-difluorophenoxy)methyl]morpholine]	880	1270
CCOc1ccccc1OC(CC(C)C)[C@@H]1CNCCO1 (mixture of isomers) [Example 105, (2S)-2-[(1S)-1-(2-ethoxyphenoxy)-3-methylbutyl]morpholine]	1500	5590
Fc1cccc(Cl)c1O[C@@H](c1ccccc1)[C@@H]1CNCCO1 [Example 113, (2S)-2-[(S)-(2-chloro-6-fluorophenoxy)(phenyl)methyl]morpholine]	15	71
CN(C)c1ccccc1O[C@@H](c1ccccc1)[C@@H]1CNCCO1 [Example 64, (2S,3S)-Dimethyl-[2-(morpholin-2-yl-phenyl-methoxy)-phenyl]-amine]	119	≥ 10000
N#Cc1ccccc1O[C@@H](c1ccccc1)[C@@H]1CNCCO1 [Example 93, 2-[(S)-(2S)-morpholin-2-yl(phenyl)methoxy]benzonitrile]	11	5600
CCOc1ccccc1OC(c1cccc[n+]1[O-])[C@@H]1CNCCO1 (stereo in doubt) [Example 100, (2S)-2-[(S)-(2-ethoxyphenoxy)(1-oxidopyridin-2-yl)methyl]morpholine]	152	≥ 10000
c1ccc(COc2ccccc2O[C@@H](c2ccccn2)[C@@H]2CNCCO2)cc1 [Example 102, (2S)-2-[(S)-[2-(benzyloxy)phenoxy](pyridin-2-yl)methyl]morpholine]	82	5740
Fc1ccccc1O[C@@H](c1ccccc1)[C@@H]1CNCCO1 [Example 84, (S)-2-[(S)-(2-Fluoro-phenoxy)-phenyl-methyl]-morpholine]	7.3	4860
c1ccc(Oc2ncccc2OC[C@H]2CNCCO2)cc1 [Example 77, (R)-2-(2-Phenoxy-pyridin-3-yloxymethyl)-morpholine]	3160	≥ 10000
c1ccc([C@H](Oc2ccccc2-c2cccnc2)[C@@H]2CNCCO2)cc1 [Example 13, (S)-2-[(S)-Phenyl-(2-pyridin-3-yl-phenoxy)-methyl]-morpholine]	18	4100
Fc1ccccc1-c1ccccc1O[C@@H](c1ccccc1)[C@@H]1CNCCO1 [Example 86, (S)-2-[(S)-(2′-Fluoro-biphenyl-2-yloxy)-phenyl-methyl]-morpholine]	14	8090
COc1cccc(F)c1OC(c1ccccc1)[C@@H]1CNCCO1 (stereo partly drawn) [Example 95, (2S)-2-[(2-fluoro-6-methoxyphenoxy)(phenyl)methyl]morpholine]	3	3410
CCOc1ccccc1O[C@@H](c1ccccn1)[C@@H]1CNCCO1 [Example 21, (S)-2-[(S)-(2-Ethoxy-phenoxy)-pyridin-2-yl-methyl]-morpholine]	6.8	2500
c1ccc(Oc2ccccc2O[C@@H](c2ccccc2)[C@@H]2CNCCO2)cc1 [Example 14, (S)-2-[(S)-(2-Phenoxy-phenoxy)-phenyl-methyl]-morpholine]	61	≥ 10000

Further lines, results first:

Ki [1] [nM]	Ki [2] [nM]	SMILES
8	201	COc1cccc([C@H](Oc2c(F)cccc2Br)[C@@H]2CNCCO2)n1 [Example 185, (2S)-2-[(S)-(2-bromo-6-fluorophenoxy)(6-methoxypyridin-2-yl)methyl]morpholine]
20	1040	CCCOc1cccc(F)c1O[C@@H](c1ccccc1)[C@@H]1CNCCO1 [Example 171, (2S)-2-[(S)-(2-fluoro-6-propoxyphenoxy)(phenyl)methyl]morpholine]
9550	≥ 10000	c1cnc(OC[C@H]2CNCCO2)c(OC[C@H]2CNCCO2)n1 [Example 200, (2R,2′R)-2,2′-[pyrazine-2,3-diylbis(oxymethylene)]dimorpholine]
20	2030	c1ccc([C@H](Oc2cccnc2C2CC2)[C@@H]2CNCCO2)cc1 [Example 150, (2S)-2-[(S)-[(2-cyclopropylpyridin-3-yl)oxy](phenyl)methyl]morpholine]
102	6140	CCOc1ncccc1OC(CC)[C@@H]1CNCCO1 (mixture of isomers) [Example 136, (2S)-2-{1-[(2-ethoxypyridin-3-yl)oxy]propyl}morpholine]
18	7520	Cc1coc(C(Oc2ccccc2OC(F)(F)F)[C@@H]2CNCCO2)n1 (stereo partly drawn) [Example 174, (2S)-2-{(4-methyl-1,3-oxazol-2-yl)[2-(trifluoromethoxy)phenoxy]methyl}morpholine]
3	707	Fc1cccc(C(F)(F)F)c1O[C@@H](c1ccccc1)[C@@H]1CNCCO1 [Example 193, (2S)-2-[(S)-[2-fluoro-6-(trifluoromethyl)phenoxy](phenyl)methyl]morpholine]
18	811	CCOc1ncccc1O[C@@H](Cc1ccccc1)[C@@H]1CNCCO1 [Example 197, (2S)-2-{(1S)-1-[(2-ethoxypyridin-3-yl)oxy]-2-phenylethyl}morpholine]
14	2210	COc1cccc([C@H](Oc2c(F)cccc2OC)[C@@H]2CNCCO2)n1 [Example 188, (2S)-2-[(S)-(2-fluoro-6-methoxyphenoxy) (6-methoxypyridin-2-yl)methyl]morpholine]
1460	9060	FC(F)(F)c1ccccc1O[C@@H](c1ccccn1)[C@@H]1CNCCO1 [Example 133, (2S)-2-{(S)-pyridin-2-yl[2-(trifluoromethyl)phenoxy]methyl}morpholine]
12	2520	c1ccc([C@H](Oc2ccccc2C2CC2)[C@@H]2CNCCO2)nc1 [Example 154, (2S)-2-[(S)-(2-cyclopropylphenoxy)(pyridin-2-yl)methyl]morpholine]
4	2570	CCOc1cccc(F)c1OC(c1ccccc1)[C@@H]1CNCCO1 (stereo partly drawn) [Example 157, (2S)-2-[(2-ethoxy-6-fluorophenoxy)(phenyl)methyl]morpholine]
45	722	COc1cccc(F)c1OC(c1cccnc1)[C@H]1CNCCO1 (mixture of isomers) [Example 202, (2R)-2-[(2-fluoro-6-methoxyphenoxy)(pyridin-3-yl)methyl]morpholine]
5	3880	FCCCOc1ccccc1O[C@@H](c1ccccc1)[C@@H]1CNCCO1 [Example 161, (2S)-2-[(S)-[2-(3-fluoropropoxy)phenoxy](phenyl)methyl]morpholine]
8	4470	FC(F)(F)Oc1ccccc1O[C@@H](c1ccccn1)[C@@H]1CNCCO1 [Example 129, (2S)-2-{(S)-pyridin-2-yl[2-(trifluoromethoxy)phenoxy]methyl}morpholine]
30	346	CCc1ncccc1O[C@@H](c1ccccc1)[C@@H]1CNCCO1 [Example 124, (2S)-2-[(S)-[(2-ethylpyridin-3-yl)oxy](phenyl)methyl]morpholine]
